Patent US20210045385A1, “PYRIDAZINONE-SUBSTITUTED KETOXIMES AS HERBICIDES” (FMC Corporation, priority 2018, published 2021)

Key:
Format in all cases: in vivo
[1] = tested on: Italian ryegrass (Lolium multiflorum); assay: Test A preemergence, visual plant response rating; conditions: for Ryegrass, Italian plant response rating: 125 g ai/ha, preemergence, 0 to 100 scale, 0 no effect, 100 complete control; for Ryegrass, Italian plant response rating (0 to 100 scale): approx. 10 days
In short: (§1)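 Greenhouse evaluation, approx. 10 days post-spray. Soil: loam + sand. Postemergence stage: 1–2 leaves, height 2–10 cm. Vehicle: non-phytotoxic solvent blend with surfactant. Score: visual injury on a 0 (no effect) to 100 (complete control) scale.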

[2] = tested on: barnyardgrass (Echinochloa crus-galli); assay: Test A preemergence, visual plant response rating; conditions: for Barnyardgrass plant response rating: 125 g ai/ha, preemergence, 0 to 100 scale, 0 no effect, 100 complete control; for Barnyardgrass plant response rating (0 to 100 scale): approx. 10 days
In short: as §1

[3] = tested on: foxtail, green (green foxtail, Setaria viridis); assay: Test A preemergence, visual plant response rating; conditions: for Foxtail, Green plant response rating: 125 g ai/ha, preemergence, 0 to 100 scale, 0 no effect, 100 complete control; for Foxtail, Green plant response rating (0 to 100 scale): approx. 10 days
In short: as §1

[4] = tested on: kochia (Kochia scoparia); assay: Test A preemergence, visual plant response rating; conditions: for Kochia plant response rating: 125 g ai/ha, preemergence, 0 to 100 scale, 0 no effect, 100 complete control; for Kochia plant response rating (0 to 100 scale): approx. 10 days
In short: as §1

[5] = tested on: pigweed (Amaranthus retroflexus); assay: Test A preemergence, visual plant response rating; conditions: for Pigweed plant response rating: 125 g ai/ha, preemergence, 0 to 100 scale, 0 no effect, 100 complete control; for Pigweed plant response rating (0 to 100 scale): approx. 10 days
In short: as §1

[6] = tested on: ragweed (common ragweed, Ambrosia elatior); assay: Test A preemergence, visual plant response rating; conditions: for Ragweed plant response rating: 125 g ai/ha, preemergence, 0 to 100 scale, 0 no effect, 100 complete control; for Ragweed plant response rating (0 to 100 scale): approx. 10 days
In short: as §1

[7] = tested on: Italian ryegrass (Lolium multiflorum); assay: Test A postemergence, visual plant response rating; conditions: for Ryegrass, Italian plant response rating: 125 g ai/ha, 0 to 100 scale (0 no effect, 100 complete control)
In short: as §1

[8] = tested on: barnyardgrass (Echinochloa crus-galli); assay: Test A postemergence, visual plant response rating; conditions: for Barnyardgrass plant response rating (0 to 100 scale): 500 g ai/ha, postemergence, 0 is no effect, 100 is complete control; for Barnyardgrass plant response rating: Postemergence, 125 g ai/ha, 0 to 100 scale (0 no effect, 100 complete control)
In short: as §1

[9] = tested on: blackgrass (Alopecurus myosuroides); assay: Test A postemergence, visual plant response rating; conditions: for Blackgrass plant response rating (0 to 100 scale): 500 g ai/ha, postemergence, 0 is no effect, 100 is complete control; for Blackgrass plant response rating: Postemergence, 125 g ai/ha, 0 to 100 scale (0 no effect, 100 complete control)
In short: as §1

[10] = tested on: corn (Zea mays); assay: Test A postemergence, visual plant response rating; conditions: for Corn plant response rating (0 to 100 scale): 500 g ai/ha, postemergence, 0 is no effect, 100 is complete control; for Corn plant response rating: Postemergence, 125 g ai/ha, 0 to 100 scale (0 no effect, 100 complete control)
In short: as §1

[11] = tested on: foxtail, green (green foxtail, Setaria viridis); assay: Test A postemergence, visual plant response rating; conditions: for Foxtail, Green plant response rating (0 to 100 scale): 500 g ai/ha, postemergence, 0 is no effect, 100 is complete control; for Foxtail, Green plant response rating: Postemergence, 125 g ai/ha, 0 to 100 scale (0 no effect, 100 complete control)
In short: as §1

[12] = tested on: galium (catchweed bedstraw, Galium aparine); assay: Test A postemergence, visual plant response rating; conditions: for Galium plant response rating (0 to 100 scale): 500 g ai/ha, postemergence, 0 is no effect, 100 is complete control; for Galium plant response rating: Postemergence, 125 g ai/ha, 0 to 100 scale (0 no effect, 100 complete control)
In short: as §1

[13] = tested on: kochia (Kochia scoparia); assay: Test A postemergence, visual plant response rating; conditions: for Kochia plant response rating (0 to 100 scale): 500 g ai/ha, postemergence, 0 is no effect, 100 is complete control; for Kochia plant response rating: Postemergence, 125 g ai/ha, 0 to 100 scale (0 no effect, 100 complete control)
In short: as §1

[14] = tested on: pigweed (Amaranthus retroflexus); assay: Test A postemergence, visual plant response rating; conditions: for Pigweed plant response rating (0 to 100 scale): 500 g ai/ha, postemergence, 0 is no effect, 100 is complete control; for Pigweed plant response rating: Postemergence, 125 g ai/ha, 0 to 100 scale (0 no effect, 100 complete control)
In short: as §1

[15] = tested on: ragweed (common ragweed, Ambrosia elatior); assay: Test A postemergence, visual plant response rating; conditions: for Ragweed plant response rating (0 to 100 scale): 500 g ai/ha, postemergence, 0 is no effect, 100 is complete control; for Ragweed plant response rating: Postemergence, 125 g ai/ha, 0 to 100 scale (0 no effect, 100 complete control)
In short: as §1

[16] = tested on: wheat (Triticum aestivum); assay: Test A postemergence, visual plant response rating; conditions: for Wheat plant response rating: 0 to 100 scale (0 no effect, 100 complete control)
In short: as §1

[17] = tested on: barnyardgrass (Echinochloa crus-galli); assay: Test B flooded paddy test, visual plant response rating; conditions: 250 g ai/ha, Flood, applied to paddy water, 2-leaf stage, evaluated after 13 to 15 days
In short: (§2)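 Compounds added straight into paddy water of pots flooded to 3 cm, with 2-leaf-stage plants of the four species; water level held throughout.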

[18] = tested on: ducksalad (Heteranhera limosa); assay: as above; conditions: 250 g ai/ha, Flood, applied to paddy water, 2-leaf stage, evaluated after 13 to 15 days
In short: as §2

[19] = tested on: rice (Oryza sativa); assay: as above; conditions: 250 g ai/ha, Flood, applied to paddy water, 2-leaf stage, evaluated after 13 to 15 days
In short: as §2

[20] = tested on: sedge, umbrella (small-flower umbrella sedge, Cyperus difformis); assay: as above; conditions: 250 g ai/ha, Flood, applied to paddy water, 2-leaf stage, evaluated after 13 to 15 days
In short: as §2

[21] = 500 g ai/ha, postemergence, 0 is no effect, 100 is complete control

Structure (SMILES) | Ryegrass, Italian plant response rating (0 to 100 scale) ([1]; 500 g ai/ha Preemergence) | Barnyardgrass plant response rating (0 to 100 scale) ([2]; 500 g ai/ha Preemergence) | Foxtail, Green plant response rating (0 to 100 scale) ([3]; 500 g ai/ha Preemergence) | Kochia plant response rating (0 to 100 scale) ([4]; 500 g ai/ha Preemergence) | Pigweed plant response rating (0 to 100 scale) ([5]; 500 g ai/ha Preemergence) | Ragweed plant response rating (0 to 100 scale) ([6]; 500 g ai/ha Preemergence) | Ryegrass, Italian plant response rating (0 to 100 scale) [7, 21] | Barnyardgrass plant response rating (0 to 100 scale) [8] | Barnyardgrass plant response rating [8] | Blackgrass plant response rating (0 to 100 scale) [9] | Blackgrass plant response rating [9] | Corn plant response rating (0 to 100 scale) [10] | Corn plant response rating [10] | Foxtail, Green plant response rating (0 to 100 scale) [11] | Foxtail, Green plant response rating [11] | Galium plant response rating (0 to 100 scale) [12] | Galium plant response rating [12] | Kochia plant response rating (0 to 100 scale) [13] | Kochia plant response rating [13] | Pigweed plant response rating (0 to 100 scale) [14] | other results
CO/N=C(/c1ccccc1Cl)c1c(O)c(C)nn(C)c1=O [Compound 63] | 50 | 0 | 20 | 20 | 80 | 70 | 70 | 0 | 0 | 80 | 10 | 0 | 0 | 10 | 0 | 80 | 60 | 30 | 10 | 50 | Ryegrass, Italian plant response rating [1]: 10; Barnyardgrass plant response rating [2]: 0; Foxtail, Green plant response rating [3]: 0; Kochia plant response rating [4]: 0; Pigweed plant response rating [5]: 0; Ragweed plant response rating [6]: 30; Ryegrass, Italian plant response rating ([7]; Postemergence): 30; Pigweed plant response rating [14]: 30; Ragweed plant response rating (0 to 100 scale) [15]: 50; Ragweed plant response rating [15]: 30; Wheat plant response rating (0 to 100 scale) [16, 21]: 20; Wheat plant response rating ([16]; Postemergence, 125 g ai/ha): 0; Plant response rating, Barnyardgrass (0 to 100 scale, 0 is no effect, 100 is complete control) [17]: 0; Plant response rating, Ducksalad (0 to 100 scale, 0 is no effect, 100 is complete control) [18]: 0; Plant response rating, Rice (0 to 100 scale, 0 is no effect, 100 is complete control) [19]: 0; Plant response rating, Sedge, Umbrella (0 to 100 scale, 0 is no effect, 100 is complete control) [20]: 0
CON=C(c1cccc(Cl)c1)c1c(O)c(C)n[nH]c1=O (mixture of isomers) [Compound 143] | 50 | 30 | 80 | 10 | 0 | 0 | 60 | 40 | 10 | 40 | 10 | 20 | 0 | 40 | 20 | 0 | 0 | 20 | 0 | 20 | Ryegrass, Italian plant response rating [1]: 20; Barnyardgrass plant response rating [2]: 0; Foxtail, Green plant response rating [3]: 30; Kochia plant response rating [4]: 0; Pigweed plant response rating [5]: 0; Ragweed plant response rating [6]: 0; Ryegrass, Italian plant response rating (0 to 100 scale) ([7]; Postemergence, rate not given, approx. 10 days): 20; Pigweed plant response rating [14]: 0; Ragweed plant response rating (0 to 100 scale) [15]: 0; Ragweed plant response rating [15]: 0; Wheat plant response rating ([16]; Postemergence, 500 g ai/ha): 20; Wheat plant response rating (0 to 100 scale) ([16]; Postemergence, approx. 10 days): 0; Plant response rating, Barnyardgrass (0 to 100 scale, 0 is no effect, 100 is complete control) [17]: 0; Plant response rating, Ducksalad (0 to 100 scale, 0 is no effect, 100 is complete control) [18]: 0; Plant response rating, Rice (0 to 100 scale, 0 is no effect, 100 is complete control) [19]: 0; Plant response rating, Sedge, Umbrella (0 to 100 scale, 0 is no effect, 100 is complete control) [20]: 0
CO/N=C(\c1cccc(C)c1C)c1c(O)c(C)nn(C)c1=O [Compound 22] | 30 | 0 | 0 | 10 | 90 | 90 | 30 | 10 | 0 | 40 | 10 | 0 | 0 | 0 | 0 | 60 | 60 | 30 | 20 | 50 | Ryegrass, Italian plant response rating (0 to 100 scale) ([1]; 125 g ai/ha Preemergence): 10; Barnyardgrass plant response rating (0 to 100 scale) ([2]; 125 g ai/ha Preemergence): 0; Foxtail, Green plant response rating (0 to 100 scale) ([3]; 125 g ai/ha Preemergence): 0; Kochia plant response rating (0 to 100 scale) ([4]; 125 g ai/ha Preemergence): 10; Pigweed plant response rating (0 to 100 scale) ([5]; 125 g ai/ha Preemergence): 30; Ragweed plant response rating (0 to 100 scale) ([6]; 125 g ai/ha Preemergence): 50; Ryegrass, Italian plant response rating ([7]; Postemergence): 10; Pigweed plant response rating [14]: 30; Ragweed plant response rating (0 to 100 scale) [15]: 50; Ragweed plant response rating [15]: 40; Wheat plant response rating (0 to 100 scale) [16, 21]: 0; Wheat plant response rating ([16]; Postemergence, 125 g ai/ha): 0; Plant response rating, Barnyardgrass (0 to 100 scale, 0 is no effect, 100 is complete control) [17]: 0; Plant response rating, Ducksalad (0 to 100 scale, 0 is no effect, 100 is complete control) [18]: 0; Plant response rating, Rice (0 to 100 scale, 0 is no effect, 100 is complete control) [19]: 0; Plant response rating, Sedge, Umbrella (0 to 100 scale, 0 is no effect, 100 is complete control) [20]: 0
CCO/N=C(\c1cccc(C)c1C)c1c(O)c(C)nn(C)c1=O [Compound 25] | 30 | 0 | 60 | 0 | 40 | 90 | 40 | 30 | 0 | 40 | 0 | 0 | 0 | 10 | 0 | 20 | 20 | 10 | 0 | 50 | Ryegrass, Italian plant response rating (0 to 100 scale) ([1]; 125 g ai/ha Preemergence): 10; Barnyardgrass plant response rating (0 to 100 scale) ([2]; 125 g ai/ha Preemergence): 0; Foxtail, Green plant response rating (0 to 100 scale) ([3]; 125 g ai/ha Preemergence): 0; Kochia plant response rating (0 to 100 scale) ([4]; 125 g ai/ha Preemergence): 0; Pigweed plant response rating (0 to 100 scale) ([5]; 125 g ai/ha Preemergence): 90; Ragweed plant response rating (0 to 100 scale) ([6]; 125 g ai/ha Preemergence): 30; Ryegrass, Italian plant response rating ([7]; Postemergence): 10; Pigweed plant response rating [14]: 40; Ragweed plant response rating (0 to 100 scale) [15]: 40; Ragweed plant response rating [15]: 20; Wheat plant response rating (0 to 100 scale) [16, 21]: 0; Wheat plant response rating ([16]; Postemergence, 125 g ai/ha): 0; Plant response rating, Barnyardgrass (0 to 100 scale, 0 is no effect, 100 is complete control) [17]: 0; Plant response rating, Ducksalad (0 to 100 scale, 0 is no effect, 100 is complete control) [18]: 0; Plant response rating, Rice (0 to 100 scale, 0 is no effect, 100 is complete control) [19]: 0; Plant response rating, Sedge, Umbrella (0 to 100 scale, 0 is no effect, 100 is complete control) [20]: 0
